Assay results published in patent US20240270762A1, “PENICILLIN-BINDING PROTEIN INHIBITORS” (priority 2021, published 2024).
pEC50, pIC50: −log10 of the molar value. In brackets after ≈: the same amount, converted by molar mass. Like-named read-outs stand apart in the source and are kept apart here.

What was measured:
[1] = biological target: T1, PBP3 from Pseudomonas aeruginosa (PAO1) (Pseudomonas aeruginosa, UniProt G3XD46); assay: Bocillin-FL fluorescence polarization competition binding, P. aeruginosa PBP3; settings: Binding affinity to P. aeruginosa PBP3; fluorescence polarization competition binding assay using Bocillin-FL; read-out: P. aeruginosa PBP3 Potency
T1 construct: made in house
Summary of the method: (§1)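 Purified PBPs pre-incubated with inhibitor (E. coli PBP3 1.5 μM, 30 min; P. aeruginosa PBP3 0.75 μM, A. baumannii PBP1a 1 μM and PBP3 0.2 μM, 15 min), then Bocillin-FL 0.1 μM (0.05 μM for PBP1a) added; FP read up to 60 min. EC50 = concentration halving bound Bocillin-FL.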

[2] = biological target: T2, PBP3 from Escherichia coli (K-12) (Escherichia coli, UniProt P0AD68); assay: Bocillin-FL fluorescence polarization competition binding, E. coli PBP3
T2 construct: made in house
Summary of the method: as §1

[3] = test system: N. gonorrhoeae ATCC 49226; assay: Liquid broth MIC in Fastidious broth; settings: Neisseria gonorrhoeae
N. gonorrhoeae WHO L = assay: Liquid broth MIC in Fastidious broth; settings: Neisseria gonorrhoeae
P. aeruginosa CDC-0090 = assay: microbe, parasite or virus in culture; type: cell-based; settings: Pseudomonas aeruginosa, CDC0090, read-out: Minimum inhibitory concentration, P. aeruginosa CDC-0090
A. baumannii CDC-0033 = assay: microbe, parasite or virus in culture; type: cell-based; settings: Acinetobacter baumannii, CDC0033, read-out: MIC, A. baumannii CDC-0033
A. baumannii ATCC 17978 = assay: microbe, parasite or virus in culture; type: cell-based; settings: Acinetobacter baumannii, ATCC17978, read-out: MIC, A. baumannii ATCC 17978
[4] = biological target: T3, PBP1a from Acinetobacter baumannii (ATCC 19606) (Acinetobacter baumannii, UniProt A0ABX6CK30); assay: Bocillin-FL fluorescence polarization competition binding, A. baumannii PBP1a; settings: fluorescence polarization competition binding assay using Bocillin-FL; read-out: A. baumannii PBP1a Potency
T3 sequence (A0ABX6CK30 1-851): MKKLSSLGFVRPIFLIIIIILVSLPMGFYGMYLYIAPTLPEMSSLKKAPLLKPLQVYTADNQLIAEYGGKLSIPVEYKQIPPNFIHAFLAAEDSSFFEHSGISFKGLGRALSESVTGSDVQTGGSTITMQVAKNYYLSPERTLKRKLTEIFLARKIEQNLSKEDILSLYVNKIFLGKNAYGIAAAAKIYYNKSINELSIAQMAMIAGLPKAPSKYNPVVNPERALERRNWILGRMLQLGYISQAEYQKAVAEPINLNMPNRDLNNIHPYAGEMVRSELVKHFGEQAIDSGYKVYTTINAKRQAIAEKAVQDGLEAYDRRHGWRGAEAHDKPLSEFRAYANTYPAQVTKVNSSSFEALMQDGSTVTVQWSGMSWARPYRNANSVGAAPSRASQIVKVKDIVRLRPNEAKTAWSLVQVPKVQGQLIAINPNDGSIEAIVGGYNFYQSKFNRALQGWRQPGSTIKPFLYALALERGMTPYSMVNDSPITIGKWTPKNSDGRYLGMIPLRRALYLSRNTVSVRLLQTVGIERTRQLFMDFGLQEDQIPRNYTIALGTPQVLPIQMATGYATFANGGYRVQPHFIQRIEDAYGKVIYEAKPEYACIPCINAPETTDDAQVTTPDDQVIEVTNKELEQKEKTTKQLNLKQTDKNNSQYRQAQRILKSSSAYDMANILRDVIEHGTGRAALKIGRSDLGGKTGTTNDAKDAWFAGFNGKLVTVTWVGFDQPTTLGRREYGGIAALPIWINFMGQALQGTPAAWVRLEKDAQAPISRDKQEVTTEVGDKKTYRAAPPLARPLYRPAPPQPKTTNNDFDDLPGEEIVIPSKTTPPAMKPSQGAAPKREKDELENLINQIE
Summary of the method: as §1

[5] = ATCC49226, read-out: Minimum Inhibitory Concentration (MIC), N. gonorrhoeae ATCC 49226
[6] = read-out: Minimum Inhibitory Concentration (MIC), N. gonorrhoeae WHO L

T2 sequence (P0AD68 1-577): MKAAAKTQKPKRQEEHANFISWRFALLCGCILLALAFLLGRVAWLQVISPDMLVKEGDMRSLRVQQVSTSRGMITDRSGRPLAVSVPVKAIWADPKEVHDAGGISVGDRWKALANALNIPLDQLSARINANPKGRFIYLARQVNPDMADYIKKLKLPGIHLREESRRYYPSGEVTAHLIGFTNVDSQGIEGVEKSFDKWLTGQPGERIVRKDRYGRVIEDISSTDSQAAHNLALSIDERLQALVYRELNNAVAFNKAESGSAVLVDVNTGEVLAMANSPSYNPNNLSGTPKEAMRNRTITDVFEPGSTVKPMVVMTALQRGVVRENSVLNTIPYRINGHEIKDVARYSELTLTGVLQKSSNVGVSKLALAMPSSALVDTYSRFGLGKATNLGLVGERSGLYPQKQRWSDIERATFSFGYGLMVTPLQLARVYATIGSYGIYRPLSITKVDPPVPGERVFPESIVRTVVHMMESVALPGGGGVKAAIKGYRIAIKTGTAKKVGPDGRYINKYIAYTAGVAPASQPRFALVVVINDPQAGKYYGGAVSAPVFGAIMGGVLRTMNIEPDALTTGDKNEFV
T1 sequence (G3XD46 whole entry): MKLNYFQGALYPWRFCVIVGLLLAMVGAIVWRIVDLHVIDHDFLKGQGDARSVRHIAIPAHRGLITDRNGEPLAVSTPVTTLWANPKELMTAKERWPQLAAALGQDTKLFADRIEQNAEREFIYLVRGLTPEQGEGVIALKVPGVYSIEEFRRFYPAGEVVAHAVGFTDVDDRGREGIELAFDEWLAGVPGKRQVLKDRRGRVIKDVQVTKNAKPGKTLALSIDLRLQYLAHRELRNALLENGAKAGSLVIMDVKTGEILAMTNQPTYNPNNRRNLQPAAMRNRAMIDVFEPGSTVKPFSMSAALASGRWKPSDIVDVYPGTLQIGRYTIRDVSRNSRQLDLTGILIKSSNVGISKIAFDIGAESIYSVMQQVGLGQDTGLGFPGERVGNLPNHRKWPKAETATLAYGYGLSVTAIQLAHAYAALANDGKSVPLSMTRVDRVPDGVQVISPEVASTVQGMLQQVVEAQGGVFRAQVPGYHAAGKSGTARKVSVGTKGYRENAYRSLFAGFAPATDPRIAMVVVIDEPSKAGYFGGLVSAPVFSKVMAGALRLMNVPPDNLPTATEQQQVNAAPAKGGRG

Row | SMILES | pIC50 [1] | pEC50 [2] | MIC [3, 5] [µg/mL] | MIC (N. gonorrhoeae WHO L; [6]) [µg/mL] | MIC (P. aeruginosa CDC-0090) [µg/mL] | MIC (A. baumannii CDC-0033) [µg/mL] | MIC (A. baumannii ATCC 17978) [µg/mL] | pIC50 [4] | MIC ([3]; ATCC49226, read-out: Minimum Inhibitory Concentration, ATCC 49226) [µg/mL] | MIC (N. gonorrhoeae WHO L; read-out: Minimum Inhibitory Concentration, WHO L) [µg/mL]
1 | O=C(O)c1cccc2c1OB(O)[C@@H](NC(=O)[C@H](NC(=O)c1cnc3n(c1=O)CCS3)c1ccc(P(=O)(O)O)cc1)C2 (single isomer, unassigned) [Example 197] | > 5.00 | 4.30 to 5.00 | 16 to 32 (≈ 26.7 to 53.3 µM) | 16 to 32 (≈ 26.7 to 53.3 µM) |  |  |  |  |  | 
2 | CN(CCN1CCN(C(=O)N[C@@H](C(=O)N[C@H]2Cc3ccc(F)c(C(=O)O)c3OB2O)c2cc(F)c(O)c(O)c2Cl)C(=O)C1=O)Cc1ccc(N)nc1 [Example 209, (R)-3-((R)-2-(4-(2-(((6-aminopyridin-3-yl)methyl)(methyl)amino)ethyl)-2,3-dioxopiperazine-1-carboxamido)-2-(2-chloro-5-fluoro-3,4-dihydroxyphenyl)acetamido)-7-fluoro-2-hydroxy-3,4-dihydro-2H-benzo[e][1,2]oxaborinine-8-carboxylic acid] |  | > 5.00 | 4 to 8 (≈ 5.36 to 10.7 µM) | > 64 | < 1 | 2 to 4 (≈ 2.68 to 5.36 µM) | < 1 | < 3.60 |  | 
3 | O=C(O)c1c(F)ccc2c1OB(O)[C@@H](NC(=O)C(NC(=O)N1CCN(CCCNC(=O)[C@@H]3CCCN3)C(=O)C1=O)c1cc(F)c(O)c(O)c1Cl)C2 (stereo partly drawn) [Example 212, (3R)-3-(2-(2-chloro-5-fluoro-3,4-dihydroxyphenyl)-2-(2,3-dioxo-4-(3-((S)-pyrrolidine-2-carboxamido)propyl)piperazine-1-carboxamido)acetamido)-7-fluoro-2-hydroxy-3,4-dihydro-2H-benzo[e][1,2]oxaborinine-8-carboxylic acid] |  | 4.30 to 5.00 | 16 to 32 (≈ 21.7 to 43.4 µM) | > 64 | < 1 | 8 to 16 (≈ 10.9 to 21.7 µM) | < 1 | < 3.60 |  | 
4 | O=C(NCCCN1CCN(C(=O)NC(C(=O)N[C@H]2Cc3ccc(F)c(C(=O)O)c3OB2O)c2cc(F)c(O)c(O)c2Cl)C(=O)C1=O)c1nccs1 (stereo partly drawn) [Example 211, (3R)-3-(2-(2-chloro-5-fluoro-3,4-dihydroxyphenyl)-2-(2,3-dioxo-4-(3-(thiazole-2-carboxamido)propyl)piperazine-1-carboxamido)acetamido)-7-fluoro-2-hydroxy-3,4-dihydro-2H-benzo[e][1,2]oxaborinine-8-carboxylic acid] |  | > 5.00 | 16 to 32 (≈ 21.3 to 42.6 µM) | > 64 | < 1 | 2 to 4 (≈ 2.66 to 5.33 µM) | < 1 | < 3.60 |  | 
5 | O=C(NCCCN1CCN(C(=O)NC(C(=O)N[C@H]2Cc3ccc(F)c(C(=O)O)c3OB2O)c2cc(F)c(O)c(O)c2Cl)C(=O)C1=O)c1cccc(O)c1 (stereo partly drawn) [Example 204, (3R)-3-(2-(2-chloro-5-fluoro-3,4-dihydroxyphenyl)-2-(4-(3-(3-hydroxybenzamido)propyl)-2,3-dioxopiperazine-1-carboxamido)acetamido)-7-fluoro-2-hydroxy-3,4-dihydro-2H-benzo[e][1,2]oxaborinine-8-carboxylic acid] | > 5.00 | > 5.00 | 16 to 32 (≈ 21.1 to 42.1 µM) | > 64 | < 1 | 2 to 4 (≈ 2.63 to 5.26 µM) | < 1 |  |  | 
6 | O=C(NCCCN1CCN(C(=O)NC(C(=O)N[C@H]2Cc3ccc(F)c(C(=O)O)c3OB2O)c2cc(F)c(O)c(O)c2Cl)C(=O)C1=O)Nc1cccnc1 (stereo partly drawn) [Example 213, (3R)-3-(2-(2-chloro-5-fluoro-3,4-dihydroxyphenyl)-2-(2,3-dioxo-4-(3-(3-(pyridin-3-yl)ureido)propyl)piperazine-1-carboxamido)acetamido)-7-fluoro-2-hydroxy-3,4-dihydro-2H-benzo[e][1,2]oxaborinine-8-carboxylic acid] |  | > 5.00 | 16 to 32 (≈ 21.1 to 42.1 µM) | > 64 | 2 to 4 (≈ 2.63 to 5.26 µM) | 8 to 16 (≈ 10.5 to 21.1 µM) | < 1 | < 3.60 |  | 
7 | O=C(O)c1cccc2c1OB(O)[C@@H](NC(=O)[C@@H](NC(=O)c1cnc3n(c1=O)CCS3)c1ccc(P(=O)(O)O)cc1)C2 (single isomer, unassigned) [Example 196] | 3.60 to 4.30 | < 3.60 | 16 to 32 (≈ 26.7 to 53.3 µM) | 16 to 32 (≈ 26.7 to 53.3 µM) |  |  |  |  |  | 
8 | O=C(NCCN1CCN(C(=O)NC(C(=O)N[C@H]2Cc3ccc(F)c(C(=O)O)c3OB2O)c2cc(F)c(O)c(O)c2Cl)C1=O)Nc1cccc(O)c1 (stereo partly drawn) [Example 249, (3R)-3-(2-(2-chloro-5-fluoro-3,4-dihydroxyphenyl)-2-(3-(2-(3-(3-hydroxyphenyl)ureido)ethyl)-2-oxoimidazolidine-1-carboxamido)acetamido)-7-fluoro-2-hydroxy-3,4-dihydro-2H-benzo[e][1,2]oxaborinine-8-carboxylic acid] | > 5.00 | > 5.00 |  |  | < 1 | 2 to 4 (≈ 2.73 to 5.46 µM) | < 1 |  | 16 to 32 (≈ 21.8 to 43.7 µM) | > 64
9 | O=C(CN1CCN(C(=O)NC(C(=O)N[C@H]2Cc3ccc(F)c(C(=O)O)c3OB2O)c2cc(F)c(O)c(O)c2Cl)C(=O)C1=O)NCc1ccc(O)cc1 (stereo partly drawn) [Example 236, (3R)-3-(2-(2-chloro-5-fluoro-3,4-dihydroxyphenyl)-2-(4-(2-((4-hydroxybenzyl)amino)-2-oxoethyl)-2,3-dioxopiperazine-1-carboxamido)acetamido)-7-fluoro-2-hydroxy-3,4-dihydro-2H-benzo[e][1,2]oxaborinine-8-carboxylic acid] | > 5.00 | > 5.00 |  |  |  | 8 to 16 (≈ 10.7 to 21.5 µM) | < 1 | < 3.60 |  | 
10 | O=C(NCCN1CCN(C(=O)NC(C(=O)N[C@H]2Cc3ccc(F)c(C(=O)O)c3OB2O)c2cc(F)c(O)c(O)c2Cl)C(=O)C1=O)c1ccccc1 (stereo partly drawn) [Example 207, (3R)-3-(2-(4-(2-benzamidoethyl)-2,3-dioxopiperazine-1-carboxamido)-2-(2-chloro-5-fluoro-3,4-dihydroxyphenyl)acetamido)-7-fluoro-2-hydroxy-3,4-dihydro-2H-benzo[e][1,2]oxaborinine-8-carboxylic acid] |  | > 5.00 | 16 to 32 (≈ 21.9 to 43.8 µM) | > 64 | < 1 | 8 to 16 (≈ 11 to 21.9 µM) | < 1 | < 3.60 |  | 
11 | CN(CCN1CCN(C(=O)N[C@@H](C(=O)N[C@H]2Cc3ccc(F)c(C(=O)O)c3OB2O)c2cc(F)c(O)c(O)c2Cl)C(=O)C1=O)Cc1cncc(O)c1 [Example 208, (R)-3-((R)-2-(2-chloro-5-fluoro-3,4-dihydroxyphenyl)-2-(4-(2-(((5-hydroxypyridin-3-yl)methyl)(methyl)amino)ethyl)-2,3-dioxopiperazine-1-carboxamido)acetamido)-7-fluoro-2-hydroxy-3,4-dihydro-2H-benzo[e][1,2]oxaborinine-8-carboxylic acid] |  | > 5.00 | 4 to 8 (≈ 5.36 to 10.7 µM) | > 64 | < 1 | 2 to 4 (≈ 2.68 to 5.36 µM) | < 1 |  |  | 
12 | CCN1CCN(C(=O)NC(C(=O)N[C@H]2Cc3cccc(C(=O)O)c3OB2O)c2ccc(P(=O)(O)O)c(F)c2O)C(=O)C1=O (stereo partly drawn) [Example 198, (3R)-3-(2-(4-ethyl-2,3-dioxopiperazine-1-carboxamido)-2-(3-fluoro-2-hydroxy-4-phosphonophenyl)acetamido)-2-hydroxy-3,4-dihydro-2H-benzo[e][1,2]oxaborinine-8-carboxylic acid] | 4.30 to 5.00 | 4.30 to 5.00 | < 1 | 1 to 2 (≈ 1.61 to 3.21 µM) |  |  |  |  |  | 
